Measured values published in patent US10287255B2, “Compounds as histone deacetylase 6 inhibitors and pharmaceutical compositions comprising the same” (CHONG KUN DANG PHARMACEUTICAL CORP., priority 2014, dated 2019).

Columns and labels:
human recombinant HDAC6 = target: T1, human recombinant HDAC6 (Homo sapiens, UniProt Q9UBN7); assay: HDAC6 enzyme activity inhibition assay (in vitro, fluorimetric); assay type: biochemical; settings: for HDAC6 selectivity (fold): HDAC6 selectivity over HDAC1; for IC50: human recombinant HDAC6, fluorimetric kit, same protocol as HDAC1
T1 construct: purchased Calbiochem 382180
T1 sequence (Q9UBN7 1-1215): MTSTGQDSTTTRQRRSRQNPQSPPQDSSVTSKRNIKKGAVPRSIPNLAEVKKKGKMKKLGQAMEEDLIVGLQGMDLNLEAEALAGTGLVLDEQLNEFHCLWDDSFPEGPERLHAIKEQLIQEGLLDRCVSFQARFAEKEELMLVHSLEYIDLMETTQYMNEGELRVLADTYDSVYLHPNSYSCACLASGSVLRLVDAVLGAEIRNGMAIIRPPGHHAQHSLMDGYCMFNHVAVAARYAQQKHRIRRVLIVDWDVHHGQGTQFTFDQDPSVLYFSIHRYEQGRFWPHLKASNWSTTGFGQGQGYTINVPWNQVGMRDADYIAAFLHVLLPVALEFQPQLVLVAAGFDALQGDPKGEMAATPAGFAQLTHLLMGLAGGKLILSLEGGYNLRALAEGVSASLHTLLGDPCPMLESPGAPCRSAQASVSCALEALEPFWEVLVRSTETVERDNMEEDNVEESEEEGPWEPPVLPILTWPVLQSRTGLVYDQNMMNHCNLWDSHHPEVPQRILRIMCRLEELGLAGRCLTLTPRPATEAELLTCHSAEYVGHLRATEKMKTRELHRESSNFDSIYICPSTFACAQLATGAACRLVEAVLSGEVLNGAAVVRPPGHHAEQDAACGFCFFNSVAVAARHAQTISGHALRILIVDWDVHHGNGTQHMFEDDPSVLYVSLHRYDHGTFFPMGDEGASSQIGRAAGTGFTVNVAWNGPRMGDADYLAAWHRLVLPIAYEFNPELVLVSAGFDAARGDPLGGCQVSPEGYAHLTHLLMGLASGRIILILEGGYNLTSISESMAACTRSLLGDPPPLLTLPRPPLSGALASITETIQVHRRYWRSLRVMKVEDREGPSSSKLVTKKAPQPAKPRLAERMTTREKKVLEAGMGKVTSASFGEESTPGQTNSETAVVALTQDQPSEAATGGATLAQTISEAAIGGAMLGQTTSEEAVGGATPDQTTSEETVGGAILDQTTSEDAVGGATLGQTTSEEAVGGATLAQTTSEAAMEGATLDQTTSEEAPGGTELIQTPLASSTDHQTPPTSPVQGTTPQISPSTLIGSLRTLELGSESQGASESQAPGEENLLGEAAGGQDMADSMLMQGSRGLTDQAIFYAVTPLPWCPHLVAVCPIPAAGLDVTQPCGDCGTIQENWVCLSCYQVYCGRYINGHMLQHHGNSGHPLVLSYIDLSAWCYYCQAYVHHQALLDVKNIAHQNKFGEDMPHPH
How it was run: (§1)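 IC50 values derive from fluorescence (Ex 360, Em 460) after developer treatment (30 min) of reactions of recombinant human HDAC1 or HDAC6 with 10 μM Fluor de Lys-SIRT1 substrate (60 min, 30 °C). Compounds were serially diluted 5-fold; 0.3 μg enzyme was used for HDAC1, with HDAC6 tested identically.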

human recombinant HDAC1 = target: T2, human recombinant HDAC1 (Homo sapiens, UniProt Q13547); assay: HDAC1 enzyme activity inhibition assay (in vitro, fluorimetric); assay type: biochemical; settings: human recombinant HDAC1, fluorimetric kit, 30° C. 60 minutes
T2 construct: purchased Enzo Life Science BML-SE456
T2 sequence (Q13547 whole entry): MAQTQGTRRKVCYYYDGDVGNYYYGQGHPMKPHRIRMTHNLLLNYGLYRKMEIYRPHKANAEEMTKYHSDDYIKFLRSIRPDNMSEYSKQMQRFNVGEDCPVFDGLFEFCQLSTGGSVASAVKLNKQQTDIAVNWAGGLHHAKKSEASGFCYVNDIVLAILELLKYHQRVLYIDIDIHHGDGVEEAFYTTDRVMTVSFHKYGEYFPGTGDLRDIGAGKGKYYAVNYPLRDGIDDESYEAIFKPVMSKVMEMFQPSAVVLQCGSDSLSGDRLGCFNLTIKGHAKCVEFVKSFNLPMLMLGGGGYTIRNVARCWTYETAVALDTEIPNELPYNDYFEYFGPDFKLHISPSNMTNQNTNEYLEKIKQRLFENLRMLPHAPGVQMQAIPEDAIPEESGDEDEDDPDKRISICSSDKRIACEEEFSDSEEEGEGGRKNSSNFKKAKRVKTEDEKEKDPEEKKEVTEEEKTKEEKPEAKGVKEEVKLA
How it was run: as §1

| HDAC6 selectivity (fold) (human recombinant HDAC6) | IC50 (human recombinant HDAC6) [nM] | IC50 (human recombinant HDAC1) [nM] | SMILES |
| --- | --- | --- | --- |
| 12 | 177 | 2100 | C[C@@H]1CN(C(=O)N2CCc3ccccc32)C[C@H](C)N1Cc1ccc(C(=O)NO)cc1 [Compound 197, N-hydroxy-4-(((2S,6R)-4-(indoline-1-carbonyl)-2,6-dimethylpiperazin-1-yl)methyl)benzamide] |
| 51 | 241 | 12200 | CCCCN(C(=O)N1C[C@@H](C)N(Cc2ccc(C(=O)NO)cc2)[C@@H](C)C1)c1ccccc1 [Compound 198, (3R,5S)-N-butyl-4-(4-(hydroxycarbamoyl)benzyl)-3,5-dimethyl-N-phenylpiperazine-1-carboxamide] |
| >12 | 807 | > 10000 | C[C@@H]1CN(Cc2ccc(C(=O)NO)cc2)C[C@H](C)N1CCCC(F)(F)F [Compound 204, 4-(((3R,5S)-3,5-dimethyl-4-(4,4,4-trifluorobutyl)piperazin-1-yl)methyl)-N-hydroxybenzamide] |
| >154 | 65 | > 10000 | C[C@@H]1CN(Cc2ccc(C(=O)NO)cc2)C[C@H](C)N1Cc1ccccc1F [Compound 211, 4-(((3R,5S)-4-(2-fluorobenzyl)-3,5-dimethylpiperazin-1-yl)methyl)-N-hydroxybenzamide] |
| >28 | 358 | > 10000 | C[C@@H]1CN(Cc2ccc(C(=O)NO)cc2)C[C@H](C)N1Cc1cc(F)ccc1F [Compound 212, 4-(((3R,5S)-4-(2,5-difluorobenzyl)-3,5-dimethylpiperazin-1-yl)methyl)-N-hydroxybenzamide] |
| >29 | 349 | > 10000 | C[C@@H]1CN(Cc2ccc(C(=O)NO)cc2)C[C@H](C)N1Cc1cc(F)c(F)cc1F [Compound 213, 4-(((3R,5S)-3,5-dimethyl-4-(2,4,5-trifluorobenzyl)piperazin-1-yl)methyl)-N-hydroxybenzamide] |
| >61 | 165 | > 10000 | C[C@@H]1CN(Cc2ccc(C(=O)NO)cc2)C[C@H](C)N1Cc1cc(C(F)(F)F)cc(C(F)(F)F)c1 [Compound 214, 4-(((3R,5S)-4-(3,5-bis(trifluoromethyl)benzyl)-3,5-dimethylpiperazin-1-yl)methyl)-N-hydroxybenzamide] |
| 2 | 523 | > 10000 | C[C@@H]1CN(Cc2cc(F)c(F)cc2F)C[C@H](C)N1Cc1ccc(C(=O)NO)cc1 [Compound 215, 4-(((2S,6R)-2,6-dimethyl-4-(2,4,5-trifluorobenzyl)piperazin-1-yl)methyl)-N-hydroxybenzamide] |
| 15 | 749 | 11100 | C[C@@H]1CN(CCc2ccc(C(=O)NO)cc2)C[C@H](C)N1Cc1ccccc1 [Compound 218, 4-(2-((3R,5S)-4-benzyl-3,5-dimethylpiperazin-1-yl)ethyl)-N-hydroxybenzamide] |
| >59 | 170 | > 10000 | CC(c1ccc(C(=O)NO)cc1)N1C[C@@H](C)N(Cc2ccccc2)[C@@H](C)C1 (stereo partly drawn) [Compound 219, 4-(1-((3R,5S)-4-benzyl-3,5-dimethylpiperazin-1-yl)ethyl)-N-hydroxybenzamide] |
| 13 | 1230 | 15900 | CC(c1ccccc1)N1C[C@@H](C)N(Cc2ccc(C(=O)NO)cc2)[C@@H](C)C1 (stereo partly drawn) [Compound 220, 4-(((2S,6R)-2,6-dimethyl-4-(1-phenylethyl)piperazin-1-yl)methyl)-N-hydroxybenzamide] |

| SMILES | HDAC6 selectivity (fold) (human recombinant HDAC6) | IC50 (human recombinant HDAC6) [nM] | IC50 (human recombinant HDAC1) [nM] |
| --- | --- | --- | --- |
| C[C@@H]1CN(Cc2ccc(C(=O)NO)cc2)C[C@H](C)N1C(=O)Cc1cccc(F)c1 [Compound 222, 4-(((3R,5S)-4-(2-(3-fluorophenyl)acetyl)-3,5-dimethylpiperazin-1-yl)methyl)-N-hydroxybenzamide] | 16 | 100 | 1600 |
